These results are taken from ChEMBL document CHEMBL1139920, “Synthesis and biological evaluation of diamine-based histamine H3 antagonists with serotonin reuptake inhibitor activity” (Bioorg Med Chem Lett, 2007).

In test [1] the target is Sodium-dependent serotonin transporter (Rattus norvegicus, UniProt P31652). The test can be described thus: Binding affinity at rat SERT.
In test [2] the target is T1, Histamine H3 receptor (Homo sapiens, UniProt Q9Y5N1). The test can be described thus: Binding affinity at human histamine H3 receptor.
The target in test [3] is Sodium-dependent serotonin transporter (Homo sapiens, UniProt P31645). The test can be described thus: Binding affinity at human SERT.
In test [4] the target is T2, Sodium-dependent noradrenaline transporter (Homo sapiens, UniProt P23975). The test can be described thus: Binding affinity at human noradrenaline transporter.
The target of test [5] is T2, Sodium-dependent noradrenaline transporter. The test can be described thus: Binding affinity at noradrenaline transporter at 1 uM.
In test [6] the target is T1, Histamine H3 receptor. The test can be described thus: Antagonist activity at human histamine H3 receptor. The settings on record: read-out: pA2 (converted). In kind it is functional.
In test [7] the target is Histamine H2 receptor (Homo sapiens) (UniProt P25021). The test can be described thus: Binding affinity at histamine H2 receptor at 1 uM.

Molecules are shown by their SMILES.

Sequence of Sodium-dependent serotonin transporter (Rattus norvegicus, UniProt P31652) (P31652 whole entry): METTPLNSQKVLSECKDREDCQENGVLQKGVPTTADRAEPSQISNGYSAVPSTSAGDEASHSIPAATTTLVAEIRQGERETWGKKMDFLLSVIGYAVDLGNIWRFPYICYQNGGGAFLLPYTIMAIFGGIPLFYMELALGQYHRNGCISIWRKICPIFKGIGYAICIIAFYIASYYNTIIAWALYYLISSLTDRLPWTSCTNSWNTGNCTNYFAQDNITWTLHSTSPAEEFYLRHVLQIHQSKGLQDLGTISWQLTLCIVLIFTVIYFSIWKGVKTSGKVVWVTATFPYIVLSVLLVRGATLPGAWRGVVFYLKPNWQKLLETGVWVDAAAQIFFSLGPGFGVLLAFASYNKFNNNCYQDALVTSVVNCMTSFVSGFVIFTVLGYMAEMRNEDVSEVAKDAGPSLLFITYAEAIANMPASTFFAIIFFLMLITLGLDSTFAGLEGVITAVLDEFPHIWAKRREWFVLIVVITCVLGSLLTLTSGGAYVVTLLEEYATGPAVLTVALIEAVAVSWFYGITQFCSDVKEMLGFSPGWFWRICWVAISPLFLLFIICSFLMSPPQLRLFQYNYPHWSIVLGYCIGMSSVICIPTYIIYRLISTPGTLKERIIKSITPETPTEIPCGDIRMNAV
Sequence of Sodium-dependent serotonin transporter (Homo sapiens, UniProt P31645) (P31645 whole entry): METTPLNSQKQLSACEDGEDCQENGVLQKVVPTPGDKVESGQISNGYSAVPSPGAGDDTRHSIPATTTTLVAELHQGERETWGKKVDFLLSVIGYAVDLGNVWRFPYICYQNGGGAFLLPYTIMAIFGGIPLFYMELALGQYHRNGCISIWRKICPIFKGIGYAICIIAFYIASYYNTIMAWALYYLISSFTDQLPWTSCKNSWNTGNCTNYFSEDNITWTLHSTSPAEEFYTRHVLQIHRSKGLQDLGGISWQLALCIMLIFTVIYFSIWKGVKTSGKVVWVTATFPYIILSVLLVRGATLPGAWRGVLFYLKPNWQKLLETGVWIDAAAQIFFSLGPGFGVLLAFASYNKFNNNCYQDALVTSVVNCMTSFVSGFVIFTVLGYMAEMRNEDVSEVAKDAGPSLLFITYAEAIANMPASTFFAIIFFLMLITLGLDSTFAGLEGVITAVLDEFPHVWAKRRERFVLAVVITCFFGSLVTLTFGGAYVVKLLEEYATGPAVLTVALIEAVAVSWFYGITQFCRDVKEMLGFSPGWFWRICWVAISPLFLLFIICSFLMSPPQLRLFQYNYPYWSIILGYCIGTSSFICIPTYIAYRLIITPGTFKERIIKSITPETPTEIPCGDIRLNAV
T1 sequence (Q9Y5N1 whole entry): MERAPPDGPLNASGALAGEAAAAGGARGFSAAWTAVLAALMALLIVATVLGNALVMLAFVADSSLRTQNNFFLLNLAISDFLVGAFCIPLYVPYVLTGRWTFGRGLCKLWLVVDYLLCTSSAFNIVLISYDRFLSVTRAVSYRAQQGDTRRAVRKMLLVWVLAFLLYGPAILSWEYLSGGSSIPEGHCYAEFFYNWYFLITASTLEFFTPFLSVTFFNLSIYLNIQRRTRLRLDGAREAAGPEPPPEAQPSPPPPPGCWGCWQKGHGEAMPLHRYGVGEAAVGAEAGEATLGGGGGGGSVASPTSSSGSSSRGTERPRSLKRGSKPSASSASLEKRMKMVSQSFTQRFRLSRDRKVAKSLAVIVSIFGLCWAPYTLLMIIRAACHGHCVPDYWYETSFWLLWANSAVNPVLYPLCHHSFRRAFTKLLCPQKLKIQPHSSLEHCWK
T2 sequence (P23975 whole entry): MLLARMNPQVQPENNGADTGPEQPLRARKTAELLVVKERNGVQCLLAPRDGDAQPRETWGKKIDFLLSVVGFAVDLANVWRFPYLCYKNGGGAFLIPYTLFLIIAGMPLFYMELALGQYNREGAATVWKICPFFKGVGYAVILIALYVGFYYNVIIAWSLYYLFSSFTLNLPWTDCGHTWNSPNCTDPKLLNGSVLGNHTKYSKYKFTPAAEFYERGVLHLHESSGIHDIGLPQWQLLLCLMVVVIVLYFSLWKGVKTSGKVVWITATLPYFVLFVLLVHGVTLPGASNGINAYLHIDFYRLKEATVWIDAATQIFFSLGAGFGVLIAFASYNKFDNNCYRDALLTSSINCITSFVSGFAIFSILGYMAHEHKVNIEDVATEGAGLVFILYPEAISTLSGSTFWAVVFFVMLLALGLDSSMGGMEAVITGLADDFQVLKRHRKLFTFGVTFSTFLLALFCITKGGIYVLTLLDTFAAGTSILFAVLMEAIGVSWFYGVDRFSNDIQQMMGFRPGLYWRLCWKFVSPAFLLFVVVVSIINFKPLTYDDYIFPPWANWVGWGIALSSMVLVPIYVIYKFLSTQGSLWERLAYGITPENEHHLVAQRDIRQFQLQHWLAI
Sequence of Histamine H2 receptor (Homo sapiens) (P25021 whole entry): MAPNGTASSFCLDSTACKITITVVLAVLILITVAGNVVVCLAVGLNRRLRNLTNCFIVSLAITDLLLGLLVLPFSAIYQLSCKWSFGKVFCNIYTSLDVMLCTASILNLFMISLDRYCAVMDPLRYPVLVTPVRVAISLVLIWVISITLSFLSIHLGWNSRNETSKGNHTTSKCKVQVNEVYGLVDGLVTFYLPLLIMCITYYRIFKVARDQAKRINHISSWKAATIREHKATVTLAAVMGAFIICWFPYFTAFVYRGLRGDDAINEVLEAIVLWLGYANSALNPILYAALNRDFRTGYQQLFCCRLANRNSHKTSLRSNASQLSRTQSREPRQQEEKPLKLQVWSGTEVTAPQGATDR

Broadly, the Ki is a dissociation constant, usually derived from enzyme kinetics or from competition with a known ligand. In test [1], `CN(C)CCC(Oc1ccc(C#N)cc1)c1ccc(OCCCN2CCCCC2)cc1` (stereo not given) came in with a Ki of 7.7 nM. For the compound `CN(C)CCC(Oc1ccc(C(F)(F)F)cc1)c1ccc(OCCCN2CCCCC2)cc1` (stereo not given), the Ki on Histamine H3 receptor [2] was determined as 2.7 nM; in test [1], 10 nM.

Take `CN(C)CCC(Oc1ccccc1)c1ccc(C#CCCN2CCCCC2)cc1` (stereo not given): the Ki on Histamine H3 receptor [2] was 1.3 nM; in test [1], 6 nM.

On to `CN(C)CCC(Oc1ccc(Cl)c(Cl)c1)c1ccc(OCCCN2CCCCC2)cc1` (stereo in doubt; 40), for which the inhibitory constant (Ki) in test [1] was 7.7 nM.

Take `COc1cccc(OC(CCN(C)C)c2ccc(OCCCN3CCCCC3)cc2)c1` (stereo not given): in test [1], the Ki came out at 2 nM. Compound `CN(C)CCC(Oc1cccc(Br)c1)c1ccc(OCCCN2CCCCC2)cc1` (stereo not given) yielded a Ki in test [1] of 2.3 nM. For `CN(C)CCC(Oc1cccc(Cl)c1)c1ccc(OCCCN2CCCCC2)cc1` (stereo in doubt; 38), the Ki in test [3] is 21 nM; on Histamine H3 receptor [2] it was 0.9 nM. Compound `CC(C)N1CCN(C(=O)c2ccc(C(CCN(C)C)Oc3ccc(C(F)(F)F)cc3)cc2)CC1` (stereo not given) yielded a Ki at Histamine H3 receptor [2] of 2.3 nM.

With `CN(C)CCC(Oc1ccc(C(F)(F)F)cc1)c1ccccc1` (stereo not given), the Ki came out at 8.3 nM in test [3], 6630 nM at Histamine H3 receptor [2] and 7.7 nM in test [1].

Regarding `COc1ccc(OC(CCN(C)C)c2ccc(OCCCN3CCCCC3)cc2)cc1` (stereo not given), the affinity at Histamine H3 receptor [2], expressed as Ki, was 1 nM.

On to `CN(C)CCC(Oc1ccc(Cl)c(Cl)c1)c1ccc(OCCCN2CCCCC2)cc1` (stereo in doubt; 39), for which the Ki in test [1] came out at 7 nM. With `CN(C)CCC(Oc1ccccc1)c1ccc(OCCCN2CCCCC2)cc1` (stereo not given), the Ki in test [4] came out at 201 nM; at Histamine H3 receptor [2] it was 0.6 nM. In addition, the Activity stood at 73% in test [5] and 66% in test [7]. Moreover, the Kb at Histamine H3 receptor [6] is 0.501 nM. On Histamine H3 receptor [2], `CN(C)CCC(Oc1ccccc1)c1cccc(OCCCN2CCCCC2)c1` (stereo not given) showed a Ki of 3.3 nM. As to `CC(C)N1CCN(C(=O)c2ccc(C(CCN(C)C)Oc3ccccc3)cc2)CC1` (stereo not given), the Ki at Histamine H3 receptor [2] was 0.8 nM; in test [1], 63 nM. With `CN(C)CCC(Oc1ccc(Br)cc1)c1ccc(OCCCN2CCCCC2)cc1` (stereo not given), the Ki in test [3] came to 9 nM.

On to `CN(C)CCC(Oc1ccc([N+](=O)[O-])cc1)c1ccc(OCCCN2CCCCC2)cc1` (stereo not given), for which the Ki in test [3] is 8.7 nM; in test [1], 3.7 nM. With `Cc1ccc(OC(CCN(C)C)c2ccc(OCCCN3CCCCC3)cc2)cc1` (stereo not given), the affinity at Histamine H3 receptor [2], expressed as Ki, was 0.7 nM. On to `CC(C)N1CCC(Oc2ccc(C(CCN(C)C)Oc3ccccc3)cc2)CC1` (stereo not given), for which the Ki in test [1] amounted to 39 nM. For `CN(C)CCC(Oc1cccc(Cl)c1)c1ccc(OCCCN2CCCCC2)cc1` (stereo in doubt; 37), the Ki in test [3] was 2.7 nM; at Histamine H3 receptor [2], 0.9 nM. Compound `CN(C)CCC(Oc1ccc(Cl)cc1)c1ccc(OCCCN2CCCCC2)cc1` (stereo not given) gave a Ki in test [1] of 2.3 nM. `CN(C)CCC(Oc1cccc(OCCCN2CCCCC2)c1)c1ccccc1` (stereo not given) registered a Ki in test [3] of 1480 nM. Consider `CN(C)CCC(Oc1ccc(C(F)(F)F)cc1)c1ccc(C#CCCN2CCCCC2)cc1` (stereo not given), for which the Ki is 5 nM on Histamine H3 receptor [2] and 33 nM in test [1].
